This note sets out measurements from patent publication US20240018158A1, “BRM TARGETING COMPOUNDS AND ASSOCIATED METHODS OF USE” (Prelude Therapeutics Incorporated, priority 2020, published 2024).

Holding throughout (format): cell-based
The target in one assay is SMARCA4 (Homo sapiens (Human), UniProt P51532). Briefly: SMARCA4 HiBiT degradation assay in HeLa cells. As to conditions: 18 hours. Here is the method:
(§1) HiBiT peptide knock-in of SMARCA2 in LgBiT expressing HEK293T cells was performed by CRISPR-mediated tagging system as described Promega. The homozygous HiBiT knock-in on c-terminus SMARCA2 was confirmed by sanger sequence. SMARCA2-HiBiT knock-in Hela monoclonal cell (CS302366) and SMARCA4-HiBiT knock-in Hela monoclonal cell (CS3023226) were purchased from Promega. The heterozygous HiBiT-knock-in was confirmed by sanger sequence in both SMARCA2-HiBiT and SMARCA4-HiBiT monoclonal cells.
(§2) Dispense 10 μL aliquot of prepared Hela-SMARCA2-HiBiT or Hela-SMARCA4-HiBiT cells (1:1 ratio of cells:Trypan Blue (#1450013, Bio-Rad)) onto cell counting slide (#145-0011, Bio-Rad) and obtain cell density and cell viability using cell counter (TC20, Bio-Rad). Remove appropriate volume of resuspended cells from culture flask to accommodate 2500 cells/well @ 20 μL/well. Transfer Hela-HiBiT cells to 50 ml conical (#430290, Corning). Spin down at 1000 rpm for 5 min using tabletop centrifuge (SPINCHRON 15, Beckman). Discard supernatant and resuspend cell pellet in modified EMEM (#30-2003, ATCC) cell culture media containing 10% FBS (F2422-500ML, Sigma), and 1×Penicillin/Streptomycin (200 g/1) (30-002-CI, Corning) to a cell density of 125,000 cells/ml. Dispense 20 μL of resuspended Hela-HiBit cells per well in 384-well TC treated plate (#12-565-343, Thermo Scientific) using standard cassette (#50950372, Thermo Scientific) on Multidrop Combi (#5840310, Thermo Scientific) inside laminar flow cabinet. Dispense test compounds onto plates using digital liquid dispenser (D300E, Tecan). Incubate plates in humidified tissue culture incubator @37° C. for 18 hours. Add 20 ul of prepared Nano-Glo® HiBiT Lytic detection buffer (N3050, Promega) to each well of 384-well plate using small tube cassette (#24073295, Thermo Scientific) on Multidrop Combi, incubate @ RT for 30-60 min. Read plates on microplate reader (Envision 2105, PerkinElmer) using 384 well Ultra-Sensitive luminescence mode. Raw data files and compound information reports are swept into centralized data lake and deconvoluted using automated scripts designed by TetraScience, Inc. Data analysis, curve-fitting and reporting done in Dotmatics Informatics Suite using Screening Ultra module.

Assay [1] has as its target T1, SMARCA2 (Homo sapiens (Human), UniProt P51531). The experiment in a line: SMARCA2 HiBiT degradation assay in HeLa cells. Conditions: 18 hours. Here is the method:
as §1, §2
(In general: The HiBiT peptide binds its large partner to form an active luciferase.)

Assay [2] concerns the target T1, SMARCA2. Briefly: SMARCA2 HiBiT degradation assay in HEK293T cells. As to conditions: 293T HiBiT assay, 24 h; for DC50: read-out: DC50 (SM2-293T) SMARCA2 degradation potency; for Dmax: HEK-293T, read-out: Dmax % (SM2-293T) maximum SMARCA2 degradation within the concentrations tested. In outline:
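LgBiT-expressing HEK293T cells with homozygous C-terminal HiBiT knock-in on endogenous SMARCA2 treated 24 h with 11-point 3-fold compound dilutions. Lytic HiBiT luminescence normalized to DMSO (high) and 1 μM PRT1001728 (low) controls; DC50 from four-parameter curve fit.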

T1 sequence (P51531 whole entry): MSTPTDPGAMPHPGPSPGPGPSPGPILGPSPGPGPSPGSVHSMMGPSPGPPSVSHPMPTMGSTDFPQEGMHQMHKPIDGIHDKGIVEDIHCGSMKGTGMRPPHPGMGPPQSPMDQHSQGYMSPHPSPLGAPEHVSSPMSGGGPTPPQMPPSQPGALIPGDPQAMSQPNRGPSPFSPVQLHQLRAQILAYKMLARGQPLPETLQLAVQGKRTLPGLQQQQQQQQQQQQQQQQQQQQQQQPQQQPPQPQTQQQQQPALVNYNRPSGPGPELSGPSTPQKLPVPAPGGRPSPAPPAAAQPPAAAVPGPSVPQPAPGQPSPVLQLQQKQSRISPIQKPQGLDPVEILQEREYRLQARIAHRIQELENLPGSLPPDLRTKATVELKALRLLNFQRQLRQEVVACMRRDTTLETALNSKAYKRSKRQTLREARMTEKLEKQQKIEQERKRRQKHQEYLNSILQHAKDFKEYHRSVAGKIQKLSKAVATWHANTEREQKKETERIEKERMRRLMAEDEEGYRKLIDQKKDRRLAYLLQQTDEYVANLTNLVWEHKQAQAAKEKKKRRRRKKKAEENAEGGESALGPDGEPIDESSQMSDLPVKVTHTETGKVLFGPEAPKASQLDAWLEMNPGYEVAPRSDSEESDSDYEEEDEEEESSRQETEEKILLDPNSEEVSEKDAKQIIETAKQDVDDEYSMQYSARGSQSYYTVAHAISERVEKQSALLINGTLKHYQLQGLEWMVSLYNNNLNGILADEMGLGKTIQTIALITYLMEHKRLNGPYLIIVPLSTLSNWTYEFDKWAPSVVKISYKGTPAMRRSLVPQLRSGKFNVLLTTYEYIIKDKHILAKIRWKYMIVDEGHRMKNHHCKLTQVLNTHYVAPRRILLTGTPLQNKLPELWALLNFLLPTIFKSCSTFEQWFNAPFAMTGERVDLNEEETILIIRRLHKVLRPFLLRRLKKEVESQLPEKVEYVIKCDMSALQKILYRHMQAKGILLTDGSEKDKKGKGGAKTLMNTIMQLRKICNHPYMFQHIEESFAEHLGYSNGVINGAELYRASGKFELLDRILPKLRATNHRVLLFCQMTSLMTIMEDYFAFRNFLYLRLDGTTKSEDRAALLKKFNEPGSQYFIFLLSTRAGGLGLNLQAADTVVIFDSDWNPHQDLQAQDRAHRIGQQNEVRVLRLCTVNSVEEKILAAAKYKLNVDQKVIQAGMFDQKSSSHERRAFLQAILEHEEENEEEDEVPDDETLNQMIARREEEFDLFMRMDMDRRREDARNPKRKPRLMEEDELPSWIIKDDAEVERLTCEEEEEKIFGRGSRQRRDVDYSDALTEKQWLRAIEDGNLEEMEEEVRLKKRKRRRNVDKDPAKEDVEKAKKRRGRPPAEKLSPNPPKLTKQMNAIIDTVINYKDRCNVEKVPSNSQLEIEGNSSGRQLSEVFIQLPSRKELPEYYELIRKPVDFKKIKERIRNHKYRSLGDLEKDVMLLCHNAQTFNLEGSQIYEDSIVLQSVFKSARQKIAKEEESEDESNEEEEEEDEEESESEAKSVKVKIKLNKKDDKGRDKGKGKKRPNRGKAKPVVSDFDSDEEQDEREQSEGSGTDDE
Chain of SMARCA4 (P51532 whole entry): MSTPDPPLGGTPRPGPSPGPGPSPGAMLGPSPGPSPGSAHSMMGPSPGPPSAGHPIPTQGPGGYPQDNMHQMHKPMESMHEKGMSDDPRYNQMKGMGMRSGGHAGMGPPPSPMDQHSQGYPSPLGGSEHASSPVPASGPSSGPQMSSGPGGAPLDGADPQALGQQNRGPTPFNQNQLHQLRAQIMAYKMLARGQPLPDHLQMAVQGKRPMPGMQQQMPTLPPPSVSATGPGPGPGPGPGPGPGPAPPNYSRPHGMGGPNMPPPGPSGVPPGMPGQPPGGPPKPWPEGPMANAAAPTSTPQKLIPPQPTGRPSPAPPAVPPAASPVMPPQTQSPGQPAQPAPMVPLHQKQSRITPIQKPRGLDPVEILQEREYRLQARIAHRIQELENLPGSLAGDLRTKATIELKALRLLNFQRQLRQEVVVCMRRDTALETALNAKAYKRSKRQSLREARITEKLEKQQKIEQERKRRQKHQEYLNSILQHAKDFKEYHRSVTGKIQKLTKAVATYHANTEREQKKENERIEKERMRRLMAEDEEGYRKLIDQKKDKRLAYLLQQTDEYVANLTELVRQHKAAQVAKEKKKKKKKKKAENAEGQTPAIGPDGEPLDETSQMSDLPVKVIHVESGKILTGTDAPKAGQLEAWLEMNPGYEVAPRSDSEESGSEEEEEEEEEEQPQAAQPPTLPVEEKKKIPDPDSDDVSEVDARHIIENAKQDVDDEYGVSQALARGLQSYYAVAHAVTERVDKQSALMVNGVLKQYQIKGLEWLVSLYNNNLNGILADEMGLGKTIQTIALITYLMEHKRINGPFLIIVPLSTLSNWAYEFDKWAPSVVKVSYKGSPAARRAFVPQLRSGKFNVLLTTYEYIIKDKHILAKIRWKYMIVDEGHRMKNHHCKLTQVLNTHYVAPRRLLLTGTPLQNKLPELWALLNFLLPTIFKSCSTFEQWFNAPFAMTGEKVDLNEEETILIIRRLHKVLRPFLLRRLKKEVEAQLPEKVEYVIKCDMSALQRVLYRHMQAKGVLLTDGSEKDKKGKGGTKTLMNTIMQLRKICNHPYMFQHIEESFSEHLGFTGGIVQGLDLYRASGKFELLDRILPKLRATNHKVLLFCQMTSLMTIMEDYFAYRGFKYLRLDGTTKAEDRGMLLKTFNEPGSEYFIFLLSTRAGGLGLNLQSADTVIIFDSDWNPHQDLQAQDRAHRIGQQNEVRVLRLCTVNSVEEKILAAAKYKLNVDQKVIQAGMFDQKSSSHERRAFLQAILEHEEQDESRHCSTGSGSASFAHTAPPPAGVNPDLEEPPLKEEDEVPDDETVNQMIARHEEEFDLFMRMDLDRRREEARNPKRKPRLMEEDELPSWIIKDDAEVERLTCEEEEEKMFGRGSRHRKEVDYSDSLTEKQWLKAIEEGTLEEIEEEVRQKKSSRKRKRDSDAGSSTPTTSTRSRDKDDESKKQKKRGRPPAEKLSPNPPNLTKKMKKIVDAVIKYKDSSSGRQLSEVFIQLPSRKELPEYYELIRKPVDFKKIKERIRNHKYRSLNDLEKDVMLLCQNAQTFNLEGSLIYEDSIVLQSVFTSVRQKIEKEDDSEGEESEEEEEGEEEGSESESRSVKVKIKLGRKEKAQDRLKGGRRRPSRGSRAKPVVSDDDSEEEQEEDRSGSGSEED

For `Cc1ncsc1-c1ccc([C@H](C)NC(=O)[C@@H]2C[C@@H](O)CN2C(=O)[C@@H](c2cc(OCC(=O)N3CCC(N4CCN5c6cc(-c7ccccc7O)nnc6NC[C@H]5C4)C(C)C3)no2)C(C)C)cc1` (single isomer, unassigned) [Example 30], the DC50 on SMARCA4 (read-out: DC50 (SM4-HeLa) SMARCA4 degradation potency) and at SMARCA2 [1] (read-out: DC50 (SM2-HeLa) SMARCA2 degradation potency) was below 100 nM throughout. For the same compound, the Dmax is above 75% at SMARCA4 (HeLa, read-out: Dmax % (SM4-HeLa) maximum SMARCA4 degradation within the concentrations tested) and above 75% on SMARCA2 [1] (read-out: Dmax % (SM2-HeLa) maximum SMARCA2 degradation within the concentrations tested).
With `Cc1ncsc1-c1ccc([C@H](C)NC(=O)[C@@H]2C[C@@H](O)CN2C(=O)[C@@H](c2cc(OCCN3CCC(N4CCN5c6cc(-c7ccccc7O)nnc6NC[C@@H]5C4)CC3)no2)C(C)C)cc1` [Example 77, (2S,4R)-4-hydroxy-1-((R)-2-(3-(2-(4-((R)-2-(2-hydroxyphenyl)-5,6,6a,7,9,10-hexahydro-8H-pyrazino[1′,2′:4,5]pyrazino[2,3-c]pyridazin-8-yl)piperidin-1-yl)ethoxy)isoxazol-5-yl)-3-methylbutanoyl)-N-((S)-1-(4-(4-methylthiazol-5-yl)phenyl)ethyl)pyrrolidine-2-carboxamide], on SMARCA2 [2], the DC50 (as a rule, the concentration giving 50% degradation) was below 100 nM and the Dmax is above 75%.
The corresponding values for `Cc1ncsc1-c1ccc([C@H](C)NC(=O)[C@@H]2C[C@@H](O)CN2C(=O)[C@@H](c2cc(OCCN3C4CCC3CC(CN3CCN5c6cc(-c7ccccc7O)nnc6NCC5C3)C4)no2)C(C)C)cc1` (stereo partly drawn) [Example 78, (2S,4R)-4-hydroxy-1-((2R)-2-(3-(2-(3-((2-(2-hydroxyphenyl)-5,6,6a,7,9,10-hexahydro-8H-pyrazino[1′,2′:4,5]pyrazino[2,3-c]pyridazin-8-yl)methyl)-8-azabicyclo[3.2.1]octan-8-yl)ethoxy)isoxazol-5-yl)-3-methylbutanoyl)-N-((S)-1-(4-(4-methylthiazol-5-yl)phenyl)ethyl)pyrrolidine-2-carboxamide] are below 100 nM and above 75%.
For `Cc1ncsc1-c1ccc([C@H](C)NC(=O)[C@@H]2C[C@@H](O)CN2C(=O)[C@@H](NC(=O)CN2CCC(N3CCN4c5cc(-c6ccccc6O)nnc5NC[C@@H]4C3)CC2)C(C)(C)C)cc1` [Example 79, (2S,4R)-4-hydroxy-1-((S)-2-(2-(4-((R)-2-(2-hydroxyphenyl)-5,6,6a,7,9,10-hexahydro-8H-pyrazino[1′,2′:4,5]pyrazino[2,3-c]pyridazin-8-yl)piperidin-1-yl)acetamido)-3,3-dimethylbutanoyl)-N-((S)-1-(4-(4-methylthiazol-5-yl)phenyl)ethyl)pyrrolidine-2-carboxamide], in that order: below 100 nM and above 75%.
For `Cc1ncsc1-c1ccc([C@H](C)NC(=O)[C@@H]2C[C@@H](O)CN2C(=O)[C@@H](NC(=O)OCCN2CCC(N3CCN4c5cc(-c6ccccc6O)nnc5NC[C@H]4C3)CC2)C(C)(C)C)cc1` [Example 80, 2-(4-((S)-2-(2-hydroxyphenyl)-5,6,6a,7,9,10-hexahydro-8H-pyrazino[1′,2′:4,5]pyrazino[2,3-c]pyridazin-8-yl)piperidin-1-yl)ethyl ((S)-1-((2S,4R)-4-hydroxy-2-(((S)-1-(4-(4-methylthiazol-5-yl)phenyl)ethyl)carbamoyl)pyrrolidin-1-yl)-3,3-dimethyl-1-oxobutan-2-yl)carbamate], in that order: below 100 nM and above 75%.
With `Cc1ncsc1-c1ccc([C@H](C)NC(=O)[C@@H]2C[C@@H](OC(=O)C(C)C)CN2C(=O)[C@@H](c2cc(OCCN3CCC(N4CCN5c6cc(-c7ccccc7O)nnc6NC[C@H]5C4)CC3)no2)C(C)C)cc1` [Example 81, (3R,5S)-1-((R)-2-(3-(2-(4-((S)-2-(2-hydroxyphenyl)-5,6,6a,7,9,10-hexahydro-8H-pyrazino[1′,2′:4,5]pyrazino[2,3-c]pyridazin-8-yl)piperidin-1-yl)ethoxy)isoxazol-5-yl)-3-methylbutanoyl)-5-(((S)-1-(4-(4-methylthiazol-5-yl)phenyl)ethyl)carbamoyl)pyrrolidin-3-yl isobutyrate], on SMARCA2 [2], the DC50 is below 100 nM and the Dmax was above 75%.
For `Cc1ncsc1-c1ccc([C@H](C)NC(=O)[C@@H]2C[C@@H](O)CN2C(=O)[C@@H](NC(=O)C2CN(CCCN3CCN4c5cc(-c6ccccc6O)nnc5NCC4C3)C2)C(C)(C)C)cc1` (stereo partly drawn) [Example 82, (2S,4R)-4-hydroxy-1-((2S)-2-(1-(3-(2-(2-hydroxyphenyl)-5,6,6a,7,9,10-hexahydro-8H-pyrazino[1′,2′:4,5]pyrazino[2,3-c]pyridazin-8-yl)propyl)azetidine-3-carboxamido)-3,3-dimethylbutanoyl)N-((S)-1-(4-(4-methylthiazol-5-yl)phenyl)ethyl)pyrrolidine-2-carboxamide], in that order: below 100 nM and above 75%.
The corresponding values for `Cc1ncsc1-c1ccc([C@H](C)NC(=O)[C@@H]2C[C@@H](O)CN2C(=O)[C@@H](c2cc(OC3CCN(CCCN4CCN5c6cc(-c7ccccc7O)nnc6NC[C@H]5C4)C3)no2)C(C)C)cc1` (stereo partly drawn) [Example 83, (2S,4R)-4-hydroxy-1-((2R)-2-(3-((1-(3-((S)-2-(2-hydroxyphenyl)-5,6,6a,7,9,10-hexahydro-8H-pyrazino[1′,2′:4,5]pyrazino[2,3-c]pyridazin-8-yl)propyl)pyrrolidin-3-yl)oxy)isoxazol-5-yl)-3-methylbutanoyl)N-((S)-1-(4-(4-methylthiazol-5-yl)phenyl)ethyl)pyrrolidine-2-carboxamide] are below 100 nM and above 75%.
The corresponding values for `Cc1ncsc1-c1ccc([C@H](C)NC(=O)[C@@H]2C[C@@H](O)CN2C(=O)[C@@H](c2cc(OCCN3CCCC(CN4CCN5c6cc(-c7ccccc7O)nnc6NC[C@H]5C4)CC3)no2)C(C)C)cc1` (stereo partly drawn) [Example 84, (2S,4R)-4-hydroxy-1-((2R)-2-(3-(2-(4-(((S)-2-(2-hydroxyphenyl)-5,6,6a,7,9,10-hexahydro-8H-pyrazino[1′,2′:4,5]pyrazino[2,3-c]pyridazin-8-yl)methyl)azepan-1-yl)ethoxy)isoxazol-5-yl)-3-methylbutanoyl)-N-((S)-1-(4-(4-methylthiazol-5-yl)phenyl)ethyl)pyrrolidine-2-carboxamide] are below 100 nM and above 75%.
As to `Cc1ncsc1-c1ccc([C@H](C)NC(=O)[C@@H]2C[C@@H](O)CN2C(=O)[C@@H](c2cc(OCCN3CCC(CN4CCN5c6cc(-c7ccccc7O)nnc6NC[C@H]5C4)C(C)(C)C3)no2)C(C)C)cc1` (stereo partly drawn) [Example 87, (2S,4R)-4-hydroxy-1-((2R)-2-(3-(2-(4-(((S)-2-(2-hydroxyphenyl)-5,6,6a,7,9,10-hexahydro-8H-pyrazino[1′,2′:4,5]pyrazino[2,3-c]pyridazin-8-yl)methyl)-3,3-dimethylpiperidin-1-yl)ethoxy)isoxazol-5-yl)-3-methylbutanoyl)-N-((S)-1-(4-(4-methylthiazol-5-yl)phenyl)ethyl)pyrrolidine-2-carboxamide], at SMARCA2 [2], the half-maximal degradation concentration (DC50) was below 100 nM and the Dmax is above 75%.
On to `Cc1ncsc1-c1ccc([C@H](C)NC(=O)[C@@H]2C[C@@H](O)CN2C(=O)[C@@H](c2cc(CCN3CCC(N4CCN5c6cc(-c7ccccc7O)nnc6NC[C@H]5C4)CC3)no2)C(C)C)cc1` [Example 91, (2S,4R)-4-hydroxy-1-((R)-2-(3-(2-(4-((S)-2-(2-hydroxyphenyl)-5,6,6a,7,9,10-hexahydro-8H-pyrazino[1′,2′:4,5]pyrazino[2,3-c]pyridazin-8-yl)piperidin-1-yl)ethyl)isoxazol-5-yl)-3-methylbutanoyl)-N-((S)-1-(4-(4-methylthiazol-5-yl)phenyl)ethyl)pyrrolidine-2-carboxamide], for which, on SMARCA2 [2], the DC50 is below 100 nM and the Dmax is above 75%.
